Literature values as cited in patent US6740655B2, “Pyrimidine carboxamides useful as inhibitors of PDE4 isozymes” (Pfizer Inc, priority 2000, dated 2004).
“Also recorded” adds a separate entry of the source. Where two headings read alike, the source gives them in different places.

Experiments:
[1] = tested on: lipopolysaccharide-induced bowel erythrocyte extravasation; settings: rats; b385: pretreatment i.p. 3×, pentoxifylline 5 to 50, rolipram 10 to 30, debufylline 0.1 to 3 mg/kg
[2] = tested on: lipopolysaccharide-induced mesenteric blood flow fall
[3] = tested on: late reactions to inhaled allergen; settings: b18: 9.5 days oral, 15 and 30 mg
tumor cells = settings: at micromolar concentrations
[4] = tested on: T-cell mediated hepatic failure; settings: mouse, in vivo
allergic rhinitis = settings: in vivo
[5] = tested on: antigen-induced eosinophilia; settings: rat
[6] = rat
[7] = doses up to 400 mg, 54 subjects
[8] = in vivo
[9] = tested on: high-affinity rolipram binding site (Sr)
[10] = tested on: inflammatory parameters, atopic dermatitis

In the case of `O=S1(=O)CCN(c2nc(NC3CC3)nc(C3CC3)n2)C1` [Formula (0.0.56)], the “relaxant activity in guinea-pig trachea model” value (guinea-pig trachea) is listed as “potent relaxant agents”.
For `CCCCn1c(=O)c2c(ncn2CC(C)=O)n(CCCC)c1=O` [denbufylline], the “lipopolysaccharide-induced bowel erythrocyte extravasation” value [1] is listed as “attenuated” and the “intestinal hypoperfusion in dogs” value [2] is listed as “attenuated”.
In the case of `COc1ccc([C@H](Cc2ccncc2)c2ccccc2)cc1OC1CCCC1` [CDP840], the “late reactions / late-phase response” value [3] is listed as “suppression of late reactions; also recorded: significant inhibition of late-phase response”.
For `CC1CC1c1nc(NC2CC2)nc(N2CCOCC2)n1` (stereo not drawn) [Formula (0.0.57)], the “relaxant activity in guinea-pig trachea model” value (guinea-pig trachea) is listed as “potent relaxant agents”.
For `COC(=O)c1ccc2c(=O)n(C3NC(c4ccccc4)c4cc(N)cc5c4N(CC5)C3=O)cnc2c1` (stereo not drawn) [Formula (0.0.53)], the IC50 (PDE4 from U937 cells; read-out: IC50 against the PDE4 from U937 cells) is given as 0.003 µM.
For `Clc1nc2c(N3CCCC3)nc(N3CCNCC3)nc2nc1NCc1ccccc1` [Formula (0.0.55)], the “growth of tumor cells” value (tumor cells) is listed as “inhibit the growth of tumor cells”.
In the case of `COc1ccc(C2CNC(=O)C2)cc1OC1CCCC1` (stereo not drawn) [rolipram], the “lipopolysaccharide-induced bowel erythrocyte extravasation” value [1] is listed as “attenuated”, the “intestinal hypoperfusion in dogs” value [2] is listed as “attenuated” and the “concanavalin A-induced IL4 release” value [4] is listed as “suppress”.
For `COc1ccc(CC2CNC(=O)N2)cc1OC1CCCC1` (stereo not drawn) [Ro 20-1724], the “adverse systemic or cutaneous effects” value (psoriatic lesions; in vivo) is given as “without adverse systemic or cutaneous effects” and the “effect on psoriatic lesions” value (psoriatic lesions; versus vehicle) is given as “improve psoriatic lesions”.
In the case of `Cc1[nH]c(=O)c(C#N)cc1-c1ccncc1` [milrinone], the “relaxant activities of isoproterenol and forskolin” value (pulmonary artery rings) is listed as “The same effect has been observed”.
For `O=C(Nc1c(Cl)cncc1Cl)C(=O)c1cn(Cc2ccc(F)cc2)c2ccc(O)cc12` [AWD-12,281], the “activity in rat model of allergic rhinitis” value (allergic rhinitis) is given as “active”.
In the case of `O=C(NC1NC(c2ccccc2)c2cccc3c2N(CC3)C1=O)c1ccncc1` (stereo not drawn) [PD-168787], the “inhibition of antigen-induced eosinophilia” value [5] is given as “activity”.
For `COc1cc2c3c(c1)C(c1ccccc1)=N[C@@H](NC(=O)c1cc4ccccc4cn1)C(=O)N3CC2` [Cl-1018], the IC50 (PDE4 from U937 cells; read-out: IC50 PDE4 in U937 cells) is listed as 1.1 µM, the oral bioavailability [6] is listed as 57% and the “inhibition of antigen-induced eosinophilia” value [5] is listed as “active”. For the same compound, the “oral potency ED50” value ([5]; oral) was 5 mg/kg and the adverse events [7] was “no adverse events were reported”.
In the case of `COc1ccc(C2CNC(=O)NC2)cc1OC1CC2CCC1C2` (stereo not drawn) [CP-80,633], the “emesis / nausea and vomiting” value [8] is listed as “elicit emesis”, the “affinity at the Sr” value [9] is listed as “high affinity” and the adverse effects ([10]; human, in vivo) is listed as “no adverse effects”. The inflammatory parameters ([10]; topical, bilaterally over eight days, twenty patients) was “effectively inhibit all of the inflammatory parameters tested”.
